System: Puccinia recondita tritici = Puccinia triticina (PUCCRT)
Experiment: Fungicidal activity vs. leaf rust on wheat plants
Format: in vivo
Details: wheat (Yuma) sprayed at 50 ppm, inoculated the following day, rated 7-9 days later, read-out: Puccinia Rating (% Disease Control @ 50 ppm)
From the text: D. Evaluation of Fungicidal Activity vs. Leaf Rust (Causal Agent Puccinia Recondita Tritici=Puccinia Triticina; Bayer Code PUCCRT)
Each pot contained 3-8 seedlings. These plants were sprayed until wet with the formulated test compounds. The compounds were formulated at 50 ppm in 10 vol. % acetone plus 90 vol. % Triton X water (deionized water 99.99 wt %+0.01 wt % Triton X100), giving a “formulated test compound.” Formulated test compounds were applied to plants using a turn table sprayer fitted with two opposing air atomization nozzles which delivered approximately 1500 L/ha of spray volume. On the following day, the leaves were inoculated with an aqueous spore suspension of Puccinia recondita tritici and the plants were kept in high humidity overnight to permit spores to germinate and infect the leaf. The plants were then transferred to a greenhouse until disease developed on untreated control plants. Disease severity was evaluated 7-9 days later, depending on the speed of disease development.
In each case of Table 3, the Puccinia rating scale is as follows: […]

Row | Compound | pest or weed control at 50 ppm [%]
1 | OC(Cn1cnnn1)(c1ccc(F)cc1F)C(F)(F)c1ccc(Oc2ncc(C(F)(F)F)cc2Cl)cn1 (stereo not drawn) [Compound 92, 1-(5-((3-chloro-5-(trifluoromethyl)pyridin-2-yl)oxy)pyridin-2-yl)-2-(2,4-difluorophenyl)-1,1-difluoro-3-(1H-tetrazol-1-yl)propan-2-ol] | 80 to 100
2 | OC(Cn1cnnn1)(c1ccc(F)cc1F)C(F)(F)c1ccc(OCc2ccccn2)cn1 (stereo not drawn) [Compound 37, 2-(2,4-Difluorophenyl)-1,1-difluoro-1-(5-(pyridin-2-ylmethoxy)pyridin-2-yl)-3-(1H-tetrazol-1-yl)propan-2-ol] | 80 to 100
3 | OC(Cn1cnnn1)(c1ccc(F)cc1F)C(F)(F)c1ccc(OCc2cccc(F)c2)cn1 (stereo not drawn) [Compound 3, 2-(2,4-Difluorophenyl)-1,1-difluoro-1-(5-(3-fluorobenzyloxy)pyridin-2-yl)-3-(1H-tetrazol-1-yl)propan-2-ol] | 80 to 100
4 | OC(Cn1cnnn1)(c1ccc(F)cc1F)C(F)(F)c1ccc(Oc2cccc(Cl)c2)cn1 (stereo not drawn) [Compound 84, 1-(5-(3-Chlorophenoxy)pyridin-2-yl)-2-(2,4-difluorophenyl)-1,1-difluoro-3-(1H-tetrazol-1-yl)propan-2-ol] | 80 to 100
5 | OC(Cn1cnnn1)(c1ccc(Cl)cc1F)C(F)(F)c1ccc(OCC2CC2)cn1 (stereo not drawn) [Compound 54, 2-(4-Chloro-2-fluorophenyl)-1-(5-(cyclopropylmethoxy)pyridin-2-yl)-1,1-difluoro-3-(1H-tetrazol-1-yl)propan-2-ol] | 80 to 100
6 | OC(Cn1cnnn1)(c1ccc(F)cc1F)C(F)(F)c1ccc(OCc2ccc(Cl)cn2)cn1 (stereo not drawn) [Compound 113, 1-(5-((5-chloropyridin-2-yl)methoxy)pyridin-2-yl)-2-(2,4-difluorophenyl)-1,1-difluoro-3-(1H-tetrazol-1-yl)propan-2-ol] | 80 to 100
7 | N#Cc1ccc(Oc2ccc(C(F)(F)C(O)(Cn3cnnn3)c3ccc(Cl)cc3F)nc2)cc1F (stereo not drawn) [Compound 81, 4-((6-(2-(4-Chloro-2-fluorophenyl)-1,1-difluoro-2-hydroxy-3-(1H-tetrazol-1-yl)propyl)pyridin-3-yl)oxy)-2-fluorobenzonitrile] | 80 to 100
8 | OC(Cn1cnnn1)(c1ccc(F)cc1F)C(F)(F)c1ccc(Oc2ccccc2F)cn1 (stereo not drawn) [Compound 88, 2-(2,4-Difluorophenyl)-1,1-difluoro-1-(5-(2-fluorophenoxy)pyridin-2-yl)-3-(1H-tetrazol-1-yl)propan-2-ol] | 80 to 100
9 | CC(C)Oc1ccc(C(F)(F)C(O)(Cn2cnnn2)c2ccc(F)cc2F)nc1 (stereo not drawn) [Compound 42, 2-(2,4-Difluorophenyl)-1,1-difluoro-1-(5-isopropoxypyridin-2-yl)-3-(1H-tetrazol-1-yl)propan-2-ol] | 80 to 100
10 | OC(Cn1cnnn1)(c1ccc(F)cc1F)C(F)(F)c1ccc(Oc2ncccn2)cn1 (stereo not drawn) [Compound 97, 2-(2,4-difluorophenyl)-1,1-difluoro-1-(5-(pyrimidin-2-yloxy)pyridin-2-yl)-3-(1H-tetrazol-1-yl)propan-2-ol] | 80 to 100
11 | N#Cc1cccc(Oc2ccc(C(F)(F)C(O)(Cn3cnnn3)c3ccc(F)cc3F)nc2)c1 (stereo not drawn) [Compound 78, 3-((6-(2-(2,4-Difluorophenyl)-1,1-difluoro-2-hydroxy-3-(1H-tetrazol-1-yl)propyl)pyridin-3-yl)oxy)benzonitrile] | 80 to 100
12 | CC(C)COc1ccc(C(F)(F)C(O)(Cn2cnnn2)c2ccc(F)cc2F)nc1 (stereo not drawn) [Compound 43, 2-(2,4-Difluorophenyl)-1,1-difluoro-1-(5-isobutoxypyridin-2-yl)-3-(1H-tetrazol-1-yl)propan-2-ol] | 80 to 100
13 | OC(Cn1cnnn1)(c1ccc(F)cc1F)C(F)(F)c1ccc(OCc2ccncc2)cn1 (stereo not drawn) [Compound 118, 2-(2,4-difluorophenyl)-1,1-difluoro-1-(5-(pyridin-4-ylmethoxy)pyridin-2-yl)-3-(1H-tetrazol-1-yl)propan-2-ol] | < 40
14 | OC(Cn1cnnn1)(c1ccc(F)cc1F)C(F)(F)c1ccc(Oc2ccc(Br)cn2)cn1 (stereo not drawn) [Compound 106, 1-(5-((5-bromopyridin-2-yl)oxy)pyridin-2-yl)-2-(2,4-difluorophenyl)-1,1-difluoro-3-(1H-tetrazol-1-yl)propan-2-ol] | 80 to 100
15 | OC(Cn1cnnn1)(c1ccc(F)cc1F)C(F)(F)c1ccc(Oc2ccccc2)cn1 (stereo not drawn) [Compound 11, 2-(2,4-Difluorophenyl)-1,1-difluoro-1-(5-phenoxypyridin-2-yl)-3-(1H-tetrazol-1-yl)propan-2-ol] | 80 to 100
16 | COc1cccc(Oc2ccc(C(F)(F)C(O)(Cn3cnnn3)c3ccc(F)cc3F)nc2)c1 (stereo not drawn) [Compound 85, 2-(2,4-Difluorophenyl)-1,1-difluoro-1-(5-(3-methoxyphenoxy)pyridin-2-yl)-3-(1H-tetrazol-1-yl)propan-2-ol] | 80 to 100
17 | OC(Cn1cnnn1)(c1ccc(F)cc1F)C(F)(F)c1ccc(OCc2ccc(C(F)(F)F)nc2)cn1 (stereo not drawn) [Compound 115, 2-(2,4-difluorophenyl)-1,1-difluoro-3-(1H-tetrazol-1-yl)-1-(5-((6-(trifluoromethyl)pyridin-3-yl)methoxy)pyridin-2-yl)propan-2-ol] | 80 to 100
18 | N#Cc1ccc(COc2ccc(C(F)(F)C(O)(Cn3cnnn3)c3ccc(Cl)cc3F)nc2)nc1 (stereo not drawn) [Compound 61, 6-(((6-(2-(4-Chloro-2-fluorophenyl)-1,1-difluoro-2-hydroxy-3-(1H-tetrazol-1-yl)propyl)pyridin-3-yl)oxy)methyl)nicotinonitrile] | 80 to 100
19 | OC(Cn1cnnn1)(c1ccc(F)cc1F)C(F)(F)c1ccc(OCc2ccc(F)c(F)c2)cn1 (stereo not drawn) [Compound 28, 1-(5-((3,4-Difluorobenzyl)oxy)pyridin-2-yl)-2-(2,4-difluorophenyl)-1,1-difluoro-3-(1H-tetrazol-1-yl)propan-2-ol] | 80 to 100
20 | OC(Cn1cnnn1)(c1ccc(F)cc1F)C(F)(F)c1ccc(OCC(F)(F)F)cn1 (stereo not drawn) [Compound 12, 2-(2,4-Difluorophenyl)-1,1-difluoro-3-(1H-tetrazol-1-yl)-1-(5-(2,2,2-trifluoroethoxy)pyridin-2-yl)propan-2-ol] | 80 to 100
21 | N#Cc1ccc(COc2ccc(C(F)(F)C(O)(Cn3cnnn3)c3ccc(Cl)cc3F)nc2)cc1 (stereo not drawn) [Compound 55, 4-(((6-(2-(4-Chloro-2-fluorophenyl)-1,1-difluoro-2-hydroxy-3-(1H-tetrazol-1-yl)propyl)pyridin-3-yl)oxy)methyl)benzonitrile] | 80 to 100
22 | OC(Cn1cnnn1)(c1ccc(F)cc1F)C(F)(F)c1ccc(OCc2ccc(C(F)(F)F)cc2)cn1 (stereo not drawn) [Compound 22, 2-(2,4-Difluorophenyl)-1,1-difluoro-3-(1H-tetrazol-1-yl)-1-(5-((4-(trifluoromethyl)benzyl)oxy)pyridin-2-yl)propan-2-ol] | 80 to 100
23 | COc1ccc(Oc2ccc(C(F)(F)C(O)(Cn3cnnn3)c3ccc(F)cc3F)nc2)cc1 (stereo not drawn) [Compound 87, 2-(2,4-Difluorophenyl)-1,1-difluoro-1-(5-(4-methoxyphenoxy)pyridin-2-yl)-3-(1H-tetrazol-1-yl)propan-2-ol] | 80 to 100
24 | OC(Cn1cnnn1)(c1ccc(F)cc1F)C(F)(F)c1ccc(OCC(F)(F)c2ccccc2)cn1 (stereo not drawn) [Compound 119, 1-(5-(2,2-difluoro-2-phenylethoxy)pyridin-2-yl)-2-(2,4-difluorophenyl)-1,1-difluoro-3-(1H-tetrazol-1-yl)propan-2-ol] | 80 to 100
25 | CC(Oc1ccc(C(F)(F)C(O)(Cn2cnnn2)c2ccc(F)cc2F)nc1)C(F)(F)F (stereo not drawn) [Compound 47, 2-(2,4-Difluorophenyl)-1,1-difluoro-3-(1H-tetrazol-1-yl)-1-(5-((1,1,1-trifluoropropan-2-yl)oxy)pyridin-2-yl)propan-2-ol] | 80 to 100
26 | OC(Cn1cnnn1)(c1ccc(F)cc1F)C(F)(F)c1ccc(Oc2ncc(Br)cn2)cn1 (stereo not drawn) [Compound 99, 1-(5-((5-bromopyrimidin-2-yl)oxy)pyridin-2-yl)-2-(2,4-difluorophenyl)-1,1-difluoro-3-(1H-tetrazol-1-yl)propan-2-ol] | 80 to 100
27 | OC(Cn1cnnn1)(c1ccc(F)cc1F)C(F)(F)c1ccc(Oc2ncc(Cl)cn2)cn1 (stereo not drawn) [Compound 98, 1-(5-((5-chloropyrimidin-2-yl)oxy)pyridin-2-yl)-2-(2,4-difluorophenyl)-1,1-difluoro-3-(1H-tetrazol-1-yl)propan-2-ol] | 80 to 100
28 | OC(Cn1cnnn1)(c1ccc(F)cc1F)C(F)(F)c1ccc(OCc2ccc(C(F)(F)F)cn2)cn1 (stereo not drawn) [Compound 114, 2-(2,4-difluorophenyl)-1,1-difluoro-3-(1H-tetrazol-1-yl)-1-(5-((5-(trifluoromethyl)pyridin-2-yl)methoxy)pyridin-2-yl)propan-2-ol] | 80 to 100
29 | OC(Cn1cnnn1)(c1ccc(F)cc1F)C(F)(F)c1ccc(OCc2cc(F)cc(F)c2)cn1 (stereo not drawn) [Compound 35, 1-(5-((3,5-Difluorobenzyl)oxy)pyridin-2-yl)-2-(2,4-difluorophenyl)-1,1-difluoro-3-(1H-tetrazol-1-yl)propan-2-ol] | 80 to 100
30 | OC(Cn1cnnn1)(c1ccc(F)cc1F)C(F)(F)c1ccc(OCc2cccs2)cn1 (stereo not drawn) [Compound 49, 2-(2,4-Difluorophenyl)-1,1-difluoro-3-(1H-tetrazol-1-yl)-1-(5-(thiophen-2-ylmethoxy)pyridin-2-yl)propan-2-ol] | 80 to 100

— patent US8796001B2, “Metalloenzyme inhibitor compounds” (Viamet Pharmaceuticals, Inc., priority 2011, dated 2014)
